Patent publication US9149038B2, “4-amino-6-(heterocyclic)picolinates and 6-amino-2-(heterocyclic)pyrimidine-4-carboxylates and their use as herbicides” (Dow AgroSciences LLC, priority 2013, dated 2015)
Read-outs that look alike come from different tables or passages of the source.

Experiments:
[1] = tested on: Key Grass and Sedge Weeds as well as Grass Crops; assay: Post-Emergent Test II: postemergent herbicidal activity, visual rating after 14 d (Table 8); type: in vivo; conditions: post-emergence, 336 h; for pest or weed control at 35 g/ha: 35 g ai/ha; for pest or weed control at 70 g/ha: 70 g ai/ha; for pest or weed control at 140 g/ha: 140 g ai/ha
Procedure, shortened: (§1)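 Track-sprayed young seedlings (first/second true leaf) at 187 L/ha across a 2-fold rate series from the high rate down to 1/16×. Kept in greenhouse at 23-29° C day, subirrigated. Injury rated by eye after 14 d, 0 = no injury, 100 = complete kill.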

[2] = tested on: Key Broadleaf Weed and Crop Species; assay: Post-Emergent Test II: postemergent herbicidal activity, visual rating after 14 d (Table 7); type: in vivo; conditions: post-emergence, 336 h; for pest or weed control at 35 g/ha: 35 g ai/ha; for pest or weed control at 70 g/ha: 70 g ai/ha; for pest or weed control at 140 g/ha: 140 g ai/ha
Procedure, shortened: as §1

[3] = barnyardgrass (Echinochloa crus-galli), read-out: Visual Growth Reduction (%) 14 Days After Application ECHCG
[4] = giant foxtail (Setaria faberi), read-out: Visual Growth Reduction (%) 14 Days After Application SETFA
[5] = maize, corn (Zea mays), read-out: Visual Growth Reduction (%) 14 Days After Application ZEAMX
[6] = rice (Oryza sativa), read-out: Visual Growth Reduction (%) 14 Days After Application ORYSA
[7] = wheat, spring (Triticum aestivum), read-out: Visual Growth Reduction (%) 14 Days After Application TRZAS
[8] = yellow nutsedge (Cyperus esculentus), read-out: Visual Growth Reduction (%) 14 Days After Application CYPES
[9] = lambsquarters (Chenopodium album), read-out: Visual Growth Reduction (%) 14 Days After Application CHEAL
[10] = oilseed rape, canola (Brassica napus), read-out: Visual Growth Reduction (%) 14 Days After Application BRSNN
[11] = redroot pigweed (Amaranthus retroflexus), read-out: Visual Growth Reduction (%) 14 Days After Application AMARE
[12] = sunflower (Helianthus annuus), read-out: Visual Growth Reduction (%) 14 Days After Application HELAN
[13] = velvetleaf (Abutilon theophrasti), read-out: Visual Growth Reduction (%) 14 Days After Application ABUTH
[14] = wild poinsettia (Euphorbia heterophylla), read-out: Visual Growth Reduction (%) 14 Days After Application EPHHL

Row | SMILES | pest or weed control at 35 g/ha [1, 3] [%] | pest or weed control at 70 g/ha [1, 3] [%] | pest or weed control at 140 g/ha [1, 3] [%] | pest or weed control at 35 g/ha [1, 4] [%] | pest or weed control at 70 g/ha [1, 4] [%] | pest or weed control at 140 g/ha [1, 4] [%] | pest or weed control at 35 g/ha [1, 5] [%] | pest or weed control at 70 g/ha [1, 5] [%] | pest or weed control at 140 g/ha [1, 5] [%] | pest or weed control at 35 g/ha [1, 6] [%] | pest or weed control at 70 g/ha [1, 6] [%] | pest or weed control at 140 g/ha [1, 6] [%] | pest or weed control at 35 g/ha [1, 7] [%] | pest or weed control at 70 g/ha [1, 7] [%] | pest or weed control at 140 g/ha [1, 7] [%] | pest or weed control at 35 g/ha [1, 8] [%] | pest or weed control at 70 g/ha [1, 8] [%] | pest or weed control at 140 g/ha [1, 8] [%] | pest or weed control at 35 g/ha [2, 9] [%] | pest or weed control at 70 g/ha [2, 9] [%] | also measured
1 | Nc1cc(-c2cc3c(cc2F)OC(F)(F)O3)nc(C(=O)O)c1Cl [Compound 42] | 95 to 100 | 95 to 100 | 95 to 100 | 60 to 74 | 75 to 84 | 75 to 84 | 60 to 74 | 75 to 84 | 75 to 84 | 30 to 44 | 30 to 44 | 30 to 44 | 60 to 74 | 60 to 74 | 60 to 74 | 95 to 100 | 95 to 100 | 95 to 100 | 85 to 94 | 85 to 94 | pest or weed control at 140 g/ha [2, 9]: 85 to 94%; pest or weed control at 35 g/ha [2, 10]: 95 to 100%; pest or weed control at 70 g/ha [2, 10]: 95 to 100%; pest or weed control at 140 g/ha [2, 10]: 95 to 100%; pest or weed control at 35 g/ha [2, 11]: 95 to 100%; pest or weed control at 70 g/ha [2, 11]: 95 to 100%; pest or weed control at 140 g/ha [2, 11]: 95 to 100%; pest or weed control at 35 g/ha [2, 12]: 45 to 59%; pest or weed control at 70 g/ha [2, 12]: 60 to 74%; pest or weed control at 140 g/ha [2, 12]: 75 to 84%; pest or weed control at 35 g/ha [2, 13]: 85 to 94%; pest or weed control at 70 g/ha [2, 13]: 85 to 94%; pest or weed control at 140 g/ha [2, 13]: 85 to 94%; pest or weed control at 35 g/ha [2, 14]: 95 to 100%; pest or weed control at 70 g/ha [2, 14]: 95 to 100%; pest or weed control at 140 g/ha [2, 14]: 95 to 100%
2 | COC(=O)c1nc(-c2ccc3c(c2)OC(C)(C)O3)c(F)c(N)c1Cl [Compound 8] | 95 to 100 | 95 to 100 | 95 to 100 | 85 to 94 | 95 to 100 | 95 to 100 | 95 to 100 | 95 to 100 | 95 to 100 | 0 to 29 | 0 to 29 | 30 to 44 | 0 to 29 | 30 to 44 | 30 to 44 | 95 to 100 | 95 to 100 | 95 to 100 | 45 to 59 | 75 to 84 | pest or weed control at 140 g/ha [2, 9]: 85 to 94%; pest or weed control at 35 g/ha [2, 10]: 60 to 74%; pest or weed control at 70 g/ha [2, 10]: 60 to 74%; pest or weed control at 140 g/ha [2, 10]: 75 to 84%; pest or weed control at 35 g/ha [2, 11]: 0 to 29%; pest or weed control at 70 g/ha [2, 11]: 45 to 59%; pest or weed control at 140 g/ha [2, 11]: 60 to 74%; pest or weed control at 35 g/ha [2, 12]: 0 to 29%; pest or weed control at 70 g/ha [2, 12]: 45 to 59%; pest or weed control at 140 g/ha [2, 12]: 85 to 94%; pest or weed control at 35 g/ha [2, 13]: 95 to 100%; pest or weed control at 70 g/ha [2, 13]: 95 to 100%; pest or weed control at 140 g/ha [2, 13]: 95 to 100%; pest or weed control at 35 g/ha [2, 14]: 95 to 100%; pest or weed control at 70 g/ha [2, 14]: 95 to 100%; pest or weed control at 140 g/ha [2, 14]: 95 to 100%
3 | Nc1cc(-c2cc(F)c3c(c2)OC(F)(F)O3)nc(C(=O)O)c1Cl [Compound 44] | 60 to 74 | 60 to 74 | 75 to 84 | 0 to 29 | 0 to 29 | 0 to 29 | 0 to 29 | 0 to 29 | 0 to 29 | 0 to 29 | 0 to 29 | 0 to 29 | 0 to 29 | 0 to 29 | 0 to 29 | 0 to 29 | 0 to 29 | 0 to 29 | 0 to 29 | 0 to 29 | pest or weed control at 140 g/ha [2, 9]: 0 to 29%; pest or weed control at 35 g/ha [2, 10]: 0 to 29%; pest or weed control at 70 g/ha [2, 10]: 0 to 29%; pest or weed control at 140 g/ha [2, 10]: 0 to 29%; pest or weed control at 35 g/ha [2, 11]: 0 to 29%; pest or weed control at 70 g/ha [2, 11]: 0 to 29%; pest or weed control at 140 g/ha [2, 11]: 0 to 29%; pest or weed control at 35 g/ha [2, 12]: 0 to 29%; pest or weed control at 70 g/ha [2, 12]: 0 to 29%; pest or weed control at 140 g/ha [2, 12]: 0 to 29%; pest or weed control at 35 g/ha [2, 13]: 0 to 29%; pest or weed control at 70 g/ha [2, 13]: 0 to 29%; pest or weed control at 140 g/ha [2, 13]: 0 to 29%; pest or weed control at 35 g/ha [2, 14]: 0 to 29%; pest or weed control at 70 g/ha [2, 14]: 0 to 29%; pest or weed control at 140 g/ha [2, 14]: 0 to 29%
